EP0181128A2, “N6-bicycloadenosines” (WARNER-LAMBERT COMPANY, priority 1984, dated 1986)
pIC50: −log10 of the molar value. Like-named read-outs stand apart in the source and are kept apart here.

Columns and labels:
adenosine A1 receptor = target: T1, adenosine A1 receptor (Rattus norvegicus, UniProt P25099); experiment: Adenosine Receptor Binding - A1 Receptor Affinity (RBA1), [3H]-CHA displacement in brain membranes; set-up: species or system rats; details: 1.0 nM [3H]-CHA, rat whole brain membranes, one hour at 25°C; read-out: RBA-1
T1 sequence (P25099 1-326): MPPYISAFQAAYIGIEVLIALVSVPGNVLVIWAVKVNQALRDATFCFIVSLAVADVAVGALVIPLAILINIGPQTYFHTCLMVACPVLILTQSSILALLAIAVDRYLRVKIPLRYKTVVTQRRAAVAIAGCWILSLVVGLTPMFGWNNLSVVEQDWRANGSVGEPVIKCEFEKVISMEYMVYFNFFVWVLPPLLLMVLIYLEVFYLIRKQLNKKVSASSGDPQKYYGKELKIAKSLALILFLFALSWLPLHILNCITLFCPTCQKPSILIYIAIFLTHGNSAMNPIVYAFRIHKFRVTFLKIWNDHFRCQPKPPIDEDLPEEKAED
Protocol: Adenosine Receptor Binding - A1 Receptor Affinity (RBA1)
The supernatant was discarded, and the pellet was resuspended and centrifuged as before.
Incubation volume was 2 ml. Unbound [^3H]-CHA was separated by rapid filtration under reduced pressure through Whatman glass fiber (GF/B) filters.
Nonspecific binding was defined as the binding which occurred in the presence of 1 mM theophylline. […] Since the amount of radioligand bound was a small fraction of the total amount added, free radioligand was defined as the concentration (nM) of radioligand added to the incubation mixture.

male Swiss-Webster mice = experiment: Antiwrithing (AW) test (analgesic test), acetic acid-induced writhing; format: in vivo; details: Mus musculus, sc; subcutaneous, 20 minutes before acetic acid (0.6%, 10 ml/kg) i.p.; dose suppressing writhing by 50%
Protocol: The antiwrithing (AW) test provides preliminary assessment of compounds with potential analgesic activity. The test is performed in male Swiss-Webster mice. Compounds are administered subcutaneously in aqueous 0.2% methylcellulose or other appropriate vehicles in volumes of 10 ml/kg. Dosages represent active moiety.
Acetic acid (0.6%, 10 ml/kg) is injected intraperitoneally 20 minutes after administration of the adenosine agonist. Writhing movements are counted for five minutes starting seven minutes after the acetic acid injection. Writhing is defined as abdominal constriction and stretching of the body and hind legs with concave arching of the back. Data are.expressed as ED50 values, where the ED50 is the dose necessary to suppress writhing by 50% relative to vehicle controls. ED50 values are calculated by nonlinear regression analysis.

Carrageenan pleurisy = Carrageenan pleurisy assay (immunoinflammatory test); format: in vivo, rats; details: Rattus norvegicus; for ED50: 4 h, four hours after carrageenan, compound given one hour prior to carrageenan
Protocol: Assessment of immunoinflammatory or antiinflammatory activity is provided by the carrageenan pleurisy assay. Carrageenan pleurisy is induced as previously described by Carter, G. W., et al., in J. Pharm. Pharmacol 34:66-67, 1982. Carrageenan (310 ug/rat) is injected intrapleurally in a 0.25 ml volume of pyrogen-free saline. Four hours later, the rats are sacrificed and 2 ml of a phenol red solution (325 mg phenol red in 1 liter of 0.05 M phosphate buffered saline) are added to each pleural cavity. The contents of the cavities are mixed and transferred to glass test tubes. A 50 ul aliquot is removed from each tube and exudate cells are counted after red blood cells lysis (with Zapoglobin; Coulter Electronics, Hialeah FL) using a Coulter model ZBI counter. The remaining exudate-phenol red mixture is centrifuged at 750 xg for 15 minutes. One hundred µl of the supernatent fluid is diluted with 3.9 ml of phosphate buffer (0.072 M of tribasic sodium phosphate, Na3PO4·12H2O, in water) and the absorbance is measured at 560 nm.
Exudate volume is calculated as follows: [formula] where V1 = unknown volume of exudate, V2 K volume of dye added to cavity (2 ml), A1 = absorbance of exudate (assumed to be zero), A2 = absorbance of the phenol red solution, A3 = absorbance of exudate and phenol red solution.
Inhibition of exudate or formation is calculated by the following equations: [formula] [formula] ID50 values are calculated by Probit analysis.
The compound of Example 1 was administered one hour prior to carrageenan injection.

adenosine A2 receptor = adenosine A2 receptor (Rattus norvegicus, UniProt P30543); experiment: Adenosine Receptor Binding - A2 Receptor Affinity (RBA2), [3H]NECA displacement in striatal membranes; set-up: species or system rats; details: 4 nM [3H]NECA, 50 nM N6-cyclopentyladenosine, 60 minutes at 25°C, read-out: RBA-2
Protocol: Adenosine Receptor Binding - A2 Receptor Affinity (RBA2)
Brains from 200-500 g mixed sex Sprague-Dawley rats were purchased from Pel-Freez (Rogers, Arkansas). […] Brains were thawed and then kept on ice while the striata were dissected out. […] When needed, tissue was thawed at room temperature, disrupted in a Polytron, and kept on ice until used.
Test compounds were dissolved at 10 mM in dimethylsulfoxide on the same day as the experiment, and diluted in dimethylsulfoxide to 100x the final incubation concentration. […] [^3H]NECA was diluted to 40 nM in Tris. […] After all additions, the rack of tubes was vortexed, and the tubes were then incubated for 60 min at 25°C in a shaking water bath. The rack of tubes was vortexed an additional time halfway through the incubation.
Incubations were terminated by filtration through 2.4 cm GF/B filters under reduced pressure. Each tube was filtered as follows: the contents of the tube were poured onto the filter, 4 ml of ice-cold Tris were added to the tube and the contents poured onto the filter, and the filter was washed twice with 4 ml of ice-cold Tris. The filtration was complete in about twelve seconds. Filters were put in scintillation vials, 8 ml of Formula 947 scintillation fluid added, and the vials left overnight, shaken, and counted in a liquid scintillation counter at 40% efficiency.

adenosine A2 receptor, sequence (P30543 whole entry): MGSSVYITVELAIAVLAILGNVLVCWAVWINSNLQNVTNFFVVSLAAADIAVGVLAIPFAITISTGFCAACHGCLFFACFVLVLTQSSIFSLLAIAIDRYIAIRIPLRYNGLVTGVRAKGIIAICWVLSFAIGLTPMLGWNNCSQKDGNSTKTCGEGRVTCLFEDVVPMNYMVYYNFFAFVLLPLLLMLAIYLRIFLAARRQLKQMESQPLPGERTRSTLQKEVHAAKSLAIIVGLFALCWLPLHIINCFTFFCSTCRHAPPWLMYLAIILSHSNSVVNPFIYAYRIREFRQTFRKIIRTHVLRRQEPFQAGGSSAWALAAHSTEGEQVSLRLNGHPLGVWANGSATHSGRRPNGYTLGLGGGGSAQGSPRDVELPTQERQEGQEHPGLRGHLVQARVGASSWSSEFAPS

| SMILES | pIC50 (adenosine A1 receptor) | ED50 (male Swiss-Webster mice) | ED50 (Carrageenan pleurisy; exudate cells (WBC), read-out: ID50 (mg/kg) WBC) | ED50 (Carrageenan pleurisy; exudate volume, read-out: ID50 (mg/kg) Exudate) | inhibition at 0.1 mg/kg (Carrageenan pleurisy; read-out: % Inhibition Exudate) | inhibition at 0.1 mg/kg (Carrageenan pleurisy; read-out: % Inhibition WBC) | inhibition at 0.2 mg/kg (Carrageenan pleurisy; read-out: % Inhibition Exudate) | inhibition at 0.2 mg/kg (Carrageenan pleurisy; read-out: % Inhibition WBC) | inhibition at 0.4 mg/kg (Carrageenan pleurisy; read-out: % Inhibition Exudate) | inhibition at 0.4 mg/kg (Carrageenan pleurisy; read-out: % Inhibition WBC) | inhibition at 0.8 mg/kg (Carrageenan pleurisy; read-out: % Inhibition Exudate) | inhibition at 0.8 mg/kg (Carrageenan pleurisy; read-out: % Inhibition WBC) | inhibition at 0.3 mg/kg (Carrageenan pleurisy; read-out: % Inhibition Exudate) | inhibition at 0.3 mg/kg (Carrageenan pleurisy; read-out: % Inhibition WBC) | inhibition at 1 mg/kg (Carrageenan pleurisy; read-out: % Inhibition Exudate) | inhibition at 1 mg/kg (Carrageenan pleurisy; read-out: % Inhibition WBC) | pIC50 (adenosine A2 receptor) |
| --- | --- | --- | --- | --- | --- | --- | --- | --- | --- | --- | --- | --- | --- | --- | --- | --- | --- |
| OCC1OC(n2cnc3c(NC4CC5CCC4C5)ncnc32)C(O)C1O (stereo not drawn) [Example 1, N6-endo-Bicyclo[2.2.1]heptyl adenosine] | 9.07 | 0.03 mg/kg | 0.12 mg/kg | 0.15 mg/kg | 49.3% | 74.1% | 60% | 70% | 81.3% | 90% | 42.7% | 68.4% |  |  |  |  |  |
| OCC1OC(n2cnc3c(NC4CC5CCC4C5)ncnc32)C(O)C1O (stereo not drawn) [Example 2, N6-exo-Bicyclo[2.2.1]heptyladenosine] | 8.85 |  |  |  |  |  |  |  |  |  |  |  | 24.3% | 25.7% | 22.9% | 52.9% |  |
| OC1C(CCl)OC(n2cnc3c(NC4CC5CCC4C5)ncnc32)C1O (stereo not drawn) [Example 5, N6-2-endo-norbornyl-5'-chloro-5'-deoxy-adenosine] | 9.16 |  |  |  | 11.7% | 18.4% |  |  |  |  |  |  | 16.8% | 40% |  |  | 5.51 |
